Experimental data: US20090012005A1, “Use of an angiotensin IV antagonist to treat insulin resistance or cardiovascular risk related to metabolic syndrome” (priority 2007, published 2009)
Entries after “also recorded” stand apart in the source; their conditions may differ. Square brackets hold non-standard residues; d marks the D form. Peptide text beside a SMILES is read from it. * marks the point of attachment. ξ: configuration not given here. β3hF = N[C@H](CC(=O)O)Cc1ccccc1; Ile(3ξ) = CCC(C)[C@H](N)C(=O)O; X1 = CC(C)C(CN)C(=O)*

Key:
[1] = tested on: angiotensinogen (AGT) and AT1 receptor (AT1R) expression in human vascular smooth muscle cells; experiment: expression of angiotensinogen and AT1 receptors (mRNA) in primary human vascular smooth muscle cell cultures; type: cell-based; settings: for inhibition of the angiotensinogen (and AT1 receptor) response to angiotensin IV: 100 nM angiotensin IV, antagonist at increasing concentrations, given 30 minutes before angiotensin IV (FIG. 3)
Method: This effect may be measured by analyzing messenger RNA as well as the corresponding proteins.
Inhibition of these effects of angiotensin IV by candidate compounds is the foundation of the model. These cellular models encompass a screening approach as well as quantitative approaches. Angiotensin IV is used at a concentration of 100 nM, a concentration at which its binding to angiotensin II receptors is minimal.
(§1) The inventors used primary cultures and vascular muscle smooth cell lines of various species (man, rat, mouse); all cell lines in which angiotensin IV exerts stimulatory effects on the expression of angiotensinogen and angiotensin II AT1 receptors may be used. The confluent smooth muscle cells are placed in a serum-free culture medium (human vascular smooth muscle medium 2 from Promocell, or any other equivalent medium), in order to block their multiplication and to synchronize them. After 24 hours of habituation in this culture medium, the medium is replaced by fresh medium to which the various test substances are added according to the order adapted to the experimental protocol. Measurements are taken after 24 hours of treatment in the case of analyses of angiotensinogen and AT1 receptor expression. The antagonists are applied to the cells 30 minutes before angiotensin IV. The cells are exposed to 100 μU/ml of insulin to measure glucose uptake.
The results are the mean of pairs of measurements taken in human vascular smooth muscle cells from six patients.

[2] = tested on: human vascular smooth muscle cells; experiment: insulin-induced 3H-deoxyglucose uptake in human vascular smooth muscle cells; type: cell-based; settings: for amplitude of maximum effect / lower plateau: inhibition of insulin-induced deoxyglucose uptake, 4-parameter logistic regression (FIG. 4); for reversion of the inhibition by angiotensin IV of insulin-induced glucose uptake: antagonist pretreatment, cells from five patients (FIG. 5)
Description: This effect by angiotensin IV is not blocked by angiotensin II AT1 receptor antagonists or by angiotensin II AT2 receptor antagonists.
Angiotensin IV inhibits insulin-induced glucose uptake in vascular smooth muscle cells by a mechanism independent of angiotensin II AT1 and AT2 receptors.
as §1
The results are the mean of pairs of measurements taken in cells from six patients.

Compound | effect on IRAP expression [1] | effect on expression of angiotensinogen and AT1 receptors ([1]; independent of AT1 receptors (FIG. 2)) | amplitude of maximum effect [2] | lower plateau [2] | inhibition of the angiotensinogen (and AT1 receptor) response to angiotensin IV [1] | reversion of the inhibition by angiotensin IV of insulin-induced glucose uptake [2]
CC[C@H](C)[C@H](NC(=O)[C@H](Cc1ccc(O)cc1)NC(=O)[C@@H](N)C(C)C)C(=O)N[C@@H](Cc1cnc[nH]1)C(=O)N1CCC[C@H]1C(=O)N[C@@H](Cc1ccccc1)C(=O)O [angiotensin IV, Val-Tyr-Ile-His-Pro-Phe] | reduces | stimulating | 58.0%±2.3% | 41.9±1.4 |  | 
CCC(C)[C@H](NC(=O)[C@H](Cc1ccc(O)cc1)NC(=O)C(CN)C(C)C)C(=O)N[C@@H](Cc1c[nH]cn1)C(=O)N1CCC[C@H]1C(=O)N[C@H](CC(=O)O)Cc1ccccc1 (stereo partly drawn) [compound AL-11, H-β^2hVal-Tyr-Ile-His-Pro-β^3hPhe-OH] (X1-Y[Ile(3ξ)]HP[β3hF]-OH) |  |  |  |  | inhibition; also recorded: much more powerful in preventing the response | reversion
CC(C)[C@H](N)CN[C@@H](Cc1ccc(O)cc1)C(=O)N[C@H](CN[C@@H](Cc1c[nH]cn1)C(=O)N1CCC[C@H]1C(=O)N[C@@H](Cc1ccccc1)C(=O)O)C(C)C [divalinal, N-Val-(CH2—NH)-Tyr-Val(CH2—NH)-His-Pro-Phe] |  |  |  |  | inhibition; also recorded: weaker depressor of the maximum response | reversion
Angiotensin II: angiotensin peptide hormone acting on AT1 and AT2 receptors, used for comparison (DRVYIHPF; Angiotensin-2; UniProt P01019 25-32, looked up) |  |  | 42.2%±6.4% | 56.3±4.5 |  | 
LVV-hemorphin-7 |  |  |  |  | no activity | no activity
